Data from patent US20090215812A1, “BIOMARKERS FOR EVALUATING LIKELIHOOD OF TUMOR SENSITIVITY TO AN MTOR INHIBITOR” (ARIAD GENE THERAPEUTICS, INC., priority 2005, published 2009).

Tests used:
[1] = system: DU145; experiment: in vitro proliferation assay (CellTiter 96 Aqueous One Solution); assay type: cell-based, human; settings: average of 10, 33 and 100 nM, 3 days incubation, relative to untreated wells
Procedure: (§1) A series of in vitro proliferation assays were performed on 14 human tumor-derived cell lines exposed to AP23573 at concentrations ranging from 0.01 nM to […]. Cells were plated into 96-well plates (between 750 and 5000 cells per well as per the table below), in cell culture medium containing serial dilutions of AP23573, or in the absence of AP23573 as a control, and were then incubated for 3 days.
(§2) At the end of the incubation, the number of cells in each well (cell viability) was determined using a CellTiter 96® Aqueous One Solution Cell Proliferation metabolic activity assay kit (Promega). This assay is based on the use of a reagent that monitors the total reducing environment of a population of cells. The quantity of reduced products, which is determined spectrophotometrically, is directly proportional to the number of viable cells in the culture. The percentage of cells remaining after treatment with each concentration of AP23573 was then determined relative to the number of cells remaining in the untreated wells.
(§3) For each cell line the percentage cells remaining after treatment with AP23573 reached a plateau between 1 and 10 nM. Thus the inhibitory effect of AP23573 on cell proliferation was calculated by taking the average of the percentage of cells remaining at the 10, 33 and 100 nM concentration levels. A lower percentage of cells remaining reflects a larger inhibitory effect of AP23573. The experiment was performed two or three times for each cell line and the results averaged.

[2] = system: HT1080; experiment: as above; assay type: cell-based, human
Procedure: as §1, §2, §3

[3] = system: SKOV3; experiment: as above; assay type: cell-based, human; settings: average of 10, 33 and 100 nM, 3 days incubation, relative to untreated wells
Procedure: as §1, §2, §3

[4] = system: MCF7; experiment: as above; assay type: cell-based, human; settings: average of 10, 33 and 100 nM, 3 days incubation, relative to untreated wells
Procedure: as §1, §2, §3

[5] = system: MDA-468; experiment: as above; assay type: cell-based, human; settings: average of 10, 33 and 100 nM, 3 days incubation, relative to untreated wells
Procedure: as §1, §2, §3

[6] = system: MDA-453; experiment: as above; assay type: cell-based, human; settings: average of 10, 33 and 100 nM, 3 days incubation, relative to untreated wells
Procedure: as §1, §2, §3

[7] = system: BT474; experiment: as above; assay type: cell-based, human; settings: average of 10, 33 and 100 nM, 3 days incubation, relative to untreated wells
Procedure: as §1, §2, §3

[8] = system: ES2; experiment: as above; assay type: cell-based, human; settings: average of 10, 33 and 100 nM, 3 days incubation, relative to untreated wells
Procedure: as §1, §2, §3

[9] = system: AN3CA; experiment: as above; assay type: cell-based, human; settings: average of 10, 33 and 100 nM, 3 days incubation, relative to untreated wells
Procedure: as §1, §2, §3

[10] = system: PC3; experiment: as above; assay type: cell-based, human; settings: average of 10, 33 and 100 nM, 3 days incubation, relative to untreated wells
Procedure: as §1, §2, §3

[11] = system: MDA-435S; experiment: as above; assay type: cell-based, human; settings: average of 10, 33 and 100 nM, 3 days incubation, relative to untreated wells
Procedure: as §1, §2, §3

[12] = system: SKBR3; experiment: as above; assay type: cell-based, human; settings: average of 10, 33 and 100 nM, 3 days incubation, relative to untreated wells
Procedure: as §1, §2, §3

[13] = system: HCT116; experiment: as above; assay type: cell-based, human
Procedure: as §1, §2, §3

[14] = system: HEC1A; experiment: as above; assay type: cell-based, human; settings: average of 10, 33 and 100 nM, 3 days incubation, relative to untreated wells
Procedure: as §1, §2, §3

[15] = system: sarcoma; experiment: ongoing clinical trial of AP23573 in sarcoma; assay type: in vivo, human; settings: number of patients
From the text: The experiment is repeated several times using either mixed sets of samples that included samples from tumors of various types or using sets of samples from a single tumor type (prostate cancer, leiomyosarcoma, osteosarcoma). Some of the samples are obtained from an ongoing clinical trial of AP23573 in sarcoma, results of which are presented below: […]

[16] = system: 14 human tumor-derived cell lines; experiment: in vitro proliferation assays on panel of tumor cell lines; assay type: cell-based
Procedure: as §1, §2
For each cell line the percentage cells remaining after treatment with AP23573 reached a plateau between 1 and 10 nM. Thus the inhibitory effect of AP23573 on cell proliferation was calculated by taking the average of the percentage of cells remaining at the 10, 33 and 100 nM concentration levels. […]

[17] = average of 10, 33 and 100 nM, 3 days incubation, relative to untreated wells

CO[C@H]1C[C@@H]2CC[C@@H](C)[C@@](O)(O2)C(=O)C(=O)N2CCCC[C@H]2C(=O)O[C@H]([C@H](C)C[C@@H]2CC[C@@H](OP(C)(C)=O)[C@H](OC)C2)CC(=O)[C@H](C)/C=C(\C)[C@@H](O)[C@@H](OC)C(=O)[C@H](C)C[C@H](C)/C=C/C=C/C=C/1C [AP23573]
Percent Cells Remaining [1]: 81% | Percent Cells Remaining [2, 17]: 37% | sensitivity to AP23573 ([2]; high FKBP12 expression level): relatively sensitive | Percent Cells Remaining [3]: 61% | Percent Cells Remaining [4]: 55% | Percent Cells Remaining [5]: 77% | Percent Cells Remaining [6]: 58% | Percent Cells Remaining [7]: 80% | Percent Cells Remaining [8]: 63% | Percent Cells Remaining [9]: 45% | Percent Cells Remaining [10]: 51% | Percent Cells Remaining [11]: 68% | Percent Cells Remaining [12]: 55% | Percent Cells Remaining [13, 17]: 94% | sensitivity to AP23573 ([13]; low FKBP12 expression level): relatively resistant | Percent Cells Remaining [14]: 70% | CR/PR (complete response / partial response) ([15]; Bone Cohort (19)): 3 | PD (progressive disease) ([15]; Bone Cohort (19)): 5 | CR/PR (complete response / partial response) ([15]; Leiomyosarcoma (18)): 0 | PD (progressive disease) ([15]; Leiomyosarcoma (18)): 6 | CR/PR (complete response / partial response) ([15]; Liposarcoma (13)): 0 | PD (progressive disease) ([15]; Liposarcoma (13)): 5 | CR/PR (complete response / partial response) ([15]; Other Sarcoma (20)): 0 | PD (progressive disease) ([15]; Other Sarcoma (20)): 7 | sensitivity to AP23573 ([16]; HEC1A, BT474, MDA468, DU145, HCT116 (lower FKBP12 expression)): lower levels of sensitivity | sensitivity to AP23573 ([16]; HT1080, PC3, ES2, SKBR3 (relatively high FKBP12 expression)): relatively high levels of sensitivity
